Data taken from ChEMBL document CHEMBL1201862, “PubChem BioAssay data set” (2004).
The source made the active and inactive calls.

How the values were obtained:
Vero = assay: cells; format: functional; conditions: Chlorocebus sabaeus
[1] = target: T1, Methionyl-tRNA synthetase, putative (Trypanosoma brucei brucei, UniProt Q38C91); format: functional, Trypanosoma brucei brucei strain 927/4 GUTat10.1
[2] = Late stage counterscreen for inhibitors of Trypanosoma brucei methionyl tRNA synthetase (MetRS): Luminescence-based cell-based high throughput dose response assay to identify compounds that are cytotoxic to Jurkat human T lymphocyte cells.; format: functional
[3] = Counterscreen for inhibitors of Trypanosoma brucei methionyl tRNA synthetase (MetRS): Luminescence-based cell-based high throughput dose response assay to identify compounds that are cytotoxic to Jurkat human T lymphocyte cells.; format: functional
[4] = target: T1, Methionyl-tRNA synthetase, putative; format: functional, Trypanosoma brucei brucei strain 927/4 GUTat10.1; remark: listed apart in the source
HEK293 = assay: HEK293T cell cytotoxicity, dose response, cytotoxicity control, ATP luminescence, cherry-pick samples (AID 687005); format: functional, cell-based; conditions: Homo sapiens;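 further: cells exposed to compound for 48 hours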
[5] = HEK293 Cytotoxicity Assay Measured in Cell-Based System Using Plate Reader - 7071-01_Inhibitor_Dose_CherryPick_Activity_Set2.; format: functional
[6] = target: Matrix metalloproteinase-14 (Homo sapiens, UniProt P50281); assay: Dose Response confirmation of uHTS hits for a small molecule inhibitors of MT1-MMP activation in a fluorescence assay set 2.; format: functional
[7] = HeLa cell cytotoxicity, dose response, cytotoxicity control for MgcRacGAP inhibitor project (AID 624300); format: functional
Large T antigen = Large T antigen (Simian virus 40, UniProt P03070); format: functional, Betapolyomavirus macacae;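 further: Confirmatory-stage PubChem screen for compounds that inhibit SV40 T antigen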
Chain of Large T antigen (P03070 whole entry): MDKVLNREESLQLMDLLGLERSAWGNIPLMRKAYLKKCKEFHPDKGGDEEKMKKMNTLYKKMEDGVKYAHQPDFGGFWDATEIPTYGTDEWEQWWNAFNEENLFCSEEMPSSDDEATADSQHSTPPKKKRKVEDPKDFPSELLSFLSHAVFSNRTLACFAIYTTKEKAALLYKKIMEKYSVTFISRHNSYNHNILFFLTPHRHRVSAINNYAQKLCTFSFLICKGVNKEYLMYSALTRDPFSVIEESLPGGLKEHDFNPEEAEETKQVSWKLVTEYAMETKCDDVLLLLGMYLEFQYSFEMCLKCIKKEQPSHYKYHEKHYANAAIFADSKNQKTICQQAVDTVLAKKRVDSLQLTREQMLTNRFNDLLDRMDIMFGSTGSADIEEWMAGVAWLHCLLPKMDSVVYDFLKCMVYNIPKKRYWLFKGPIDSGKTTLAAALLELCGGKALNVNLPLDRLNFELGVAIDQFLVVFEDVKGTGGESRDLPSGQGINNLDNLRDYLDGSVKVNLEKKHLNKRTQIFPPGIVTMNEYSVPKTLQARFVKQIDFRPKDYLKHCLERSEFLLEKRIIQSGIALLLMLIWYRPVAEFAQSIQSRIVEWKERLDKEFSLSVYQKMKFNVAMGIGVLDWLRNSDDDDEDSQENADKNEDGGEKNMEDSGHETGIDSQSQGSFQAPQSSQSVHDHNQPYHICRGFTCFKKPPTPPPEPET

[8] = target: T2, Rac GTPase-activating protein 1 (Homo sapiens, UniProt Q9H0H5); assay: MgcRacGAP GTPase-activating activity inhibitors, confirmation, biochemical, ADP Hunter fluorescence, primary and confirmatory (AID 624330); format: functional
T2 sequence (Q9H0H5 whole entry): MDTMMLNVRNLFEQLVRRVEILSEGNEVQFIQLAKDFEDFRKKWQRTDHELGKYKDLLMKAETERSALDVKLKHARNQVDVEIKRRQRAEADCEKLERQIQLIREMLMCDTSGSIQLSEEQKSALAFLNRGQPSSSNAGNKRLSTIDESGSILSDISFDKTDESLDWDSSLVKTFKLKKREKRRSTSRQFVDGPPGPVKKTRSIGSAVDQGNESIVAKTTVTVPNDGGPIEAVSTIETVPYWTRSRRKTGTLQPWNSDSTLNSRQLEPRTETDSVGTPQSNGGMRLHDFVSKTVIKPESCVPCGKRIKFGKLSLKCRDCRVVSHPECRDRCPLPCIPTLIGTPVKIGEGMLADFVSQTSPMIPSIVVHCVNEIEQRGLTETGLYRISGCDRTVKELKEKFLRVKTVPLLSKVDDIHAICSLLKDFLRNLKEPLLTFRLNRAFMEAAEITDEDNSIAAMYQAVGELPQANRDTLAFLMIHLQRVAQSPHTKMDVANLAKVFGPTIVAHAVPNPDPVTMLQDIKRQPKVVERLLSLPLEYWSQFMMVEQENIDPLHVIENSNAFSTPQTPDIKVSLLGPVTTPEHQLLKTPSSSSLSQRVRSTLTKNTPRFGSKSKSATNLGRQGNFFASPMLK

INS1 = assay: beta cell apoptosis inhibitors, cytokine rescue, dose response, luminescence, retest (AID 449756); format: functional, cell-based; conditions: Rattus norvegicus;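 further: cell death triggered by IL-1 beta plus TNF-alpha plus IFN-gamma mixture; protective hits raise ATP signal compared with cytokine alone wells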
Protein Wnt-3a = Protein Wnt-3a (Mus musculus, UniProt P27467); assay: Wnt3a-driven reporter signaling inhibition, dose response, selectivity assay for Gli-SUFU antagonist project, Wnt-LIGHT cells, luminescence (AID 651570); format: functional; conditions: read-out: IC50_Mean;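 further: Wnt-LIGHT reporter cells stimulated with conditioned medium from Wnt3a-producing cells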
Chain of Protein Wnt-3a (P27467 whole entry): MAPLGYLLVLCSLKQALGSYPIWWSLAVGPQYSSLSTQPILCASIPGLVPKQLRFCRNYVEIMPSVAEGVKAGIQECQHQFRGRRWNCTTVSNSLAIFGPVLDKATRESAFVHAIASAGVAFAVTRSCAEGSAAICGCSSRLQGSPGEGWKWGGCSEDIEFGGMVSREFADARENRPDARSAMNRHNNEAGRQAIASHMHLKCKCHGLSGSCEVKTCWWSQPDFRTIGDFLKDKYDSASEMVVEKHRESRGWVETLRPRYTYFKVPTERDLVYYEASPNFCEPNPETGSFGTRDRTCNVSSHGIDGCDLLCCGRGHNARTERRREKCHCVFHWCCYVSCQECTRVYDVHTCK

[9] = A Cell-Based Confirmatory Screen for Compounds that Inhibit VEEV, TC-83 (7).; format: functional
[10] = A375 melanoma cell cytotoxicity, dose response, counter-screen for MITF inhibitor project, CellTiter-Glo luminescence, dry powder, set 2 (AID 624489); format: functional, cell-based; conditions: A-375;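 further: actives are compounds lowering A375 viability meaning general cytotoxicity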
[11] = A375 melanoma cell viability loss, dose response, counter-screen for MITF inhibitor project, CellTiter-Glo luminescence, dry powder, set 4 (AID 624364); format: functional, cell-based; conditions: A-375;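 further: A375 melanoma cells are MITF independent so this is a counter screen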
[12] = non-specific cell cytotoxicity, dose response, cytotoxicity control for PAX8 inhibitor project, plate reader, dry powder samples (AID 743021); format: functional, cell-based
Paired box protein Pax-8 = Paired box protein Pax-8 (Homo sapiens, UniProt Q06710); assay: inhibitors of PAX8-driven TPO luciferase reporter, dose response, RMG-I cells, cherry-pick (AID 687027); format: functional, cell-based;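 further: luciferase reporter driven by Pax8 target thyroperoxidase promoter measured by SteadyGlo luminescence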
Chain of Paired box protein Pax-8 (Q06710 whole entry): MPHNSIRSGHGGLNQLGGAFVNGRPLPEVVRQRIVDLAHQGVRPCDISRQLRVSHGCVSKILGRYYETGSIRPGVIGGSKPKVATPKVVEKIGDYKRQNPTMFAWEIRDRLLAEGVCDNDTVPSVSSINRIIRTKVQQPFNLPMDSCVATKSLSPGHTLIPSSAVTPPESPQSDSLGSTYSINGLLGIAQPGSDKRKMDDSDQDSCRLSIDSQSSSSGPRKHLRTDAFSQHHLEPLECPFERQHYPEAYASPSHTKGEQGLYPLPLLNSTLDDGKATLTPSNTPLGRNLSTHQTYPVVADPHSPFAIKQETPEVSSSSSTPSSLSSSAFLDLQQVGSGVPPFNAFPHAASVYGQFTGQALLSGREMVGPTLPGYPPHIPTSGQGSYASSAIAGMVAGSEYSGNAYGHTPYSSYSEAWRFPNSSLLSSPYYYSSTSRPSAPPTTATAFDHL

[13] = MITF: Counter assay: A375 proliferation Measured in Cell-Based System Using Plate Reader - 2084-03_Inhibitor_Dose_DryPowder_Activity_Set8.; format: functional; conditions: A-375
[14] = MITF Orthogonal Assay: SK-MEL-5 CTG Assay Measured in Cell-Based System Using Plate Reader - 2084-02_Inhibitor_Dose_DryPowder_Activity_Set7.; format: functional
[15] = TRPM1 promoter luciferase reporter signal decrease, dose response, MITF inhibitor project, cell-based, SK-MEL-5, dry powder, set 8 (AID 624430); format: functional
Beta-lactamase [16] = target: Beta-lactamase (Salmonella choleraesuis (strain SC-B67), UniProt Q5J463); assay: Epi-absorbance-based counterscreen for selective VIM-2 inhibitors: dose response biochemical high throughput screening assay to identify inhibitors of TEM-1 serine-beta-lactamase.
Chain of Beta-lactamase (Salmonella choleraesuis (strain SC-B67), UniProt Q5J463) (Q5J463 whole entry): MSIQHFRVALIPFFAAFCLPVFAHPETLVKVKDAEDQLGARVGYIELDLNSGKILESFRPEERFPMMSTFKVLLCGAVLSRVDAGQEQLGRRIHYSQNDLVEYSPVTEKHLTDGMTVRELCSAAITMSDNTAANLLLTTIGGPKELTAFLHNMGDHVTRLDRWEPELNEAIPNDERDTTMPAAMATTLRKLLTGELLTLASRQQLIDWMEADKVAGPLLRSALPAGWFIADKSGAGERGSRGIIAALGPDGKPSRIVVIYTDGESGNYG

Beta-lactamase [17] = target: T3, Beta-lactamase (Pseudomonas aeruginosa, UniProt Q79MP6); assay: […] counterscreen for selective VIM-2 inhibitors: dose response biochemical high throughput screening assay to identify inhibitors of IMP-1 metallo-beta-lactamase.
T3 sequence (Q79MP6 whole entry): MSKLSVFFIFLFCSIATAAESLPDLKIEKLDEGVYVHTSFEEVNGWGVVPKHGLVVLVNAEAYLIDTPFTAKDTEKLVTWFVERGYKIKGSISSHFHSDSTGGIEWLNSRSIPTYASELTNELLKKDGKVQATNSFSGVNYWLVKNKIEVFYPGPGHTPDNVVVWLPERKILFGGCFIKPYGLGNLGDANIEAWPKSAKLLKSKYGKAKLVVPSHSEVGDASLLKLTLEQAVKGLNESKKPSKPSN

Beta-lactamase [18] = target: T3, Beta-lactamase; assay: IMP-1 metallo-beta-lactamase inhibitors, dose response, selectivity assay for VIM-2 inhibitor project, biochemical, epi-absorbance (AID 1920)
Bcl-2-like protein 10 = target: T4, Bcl-2-like protein 10 (Homo sapiens, UniProt Q9HD36); assay: displacers of TR3 peptide from Bcl-B, primary screen, selectivity assay for Bfl-1 inhibitor project, biochemical, fluorescence polarization, FITC-TR3 peptide (AID 748);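 further: fluorescence polarization from a fluorescein-labelled TR3 peptide binding purified Bcl-B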
T4 sequence (Q9HD36 whole entry): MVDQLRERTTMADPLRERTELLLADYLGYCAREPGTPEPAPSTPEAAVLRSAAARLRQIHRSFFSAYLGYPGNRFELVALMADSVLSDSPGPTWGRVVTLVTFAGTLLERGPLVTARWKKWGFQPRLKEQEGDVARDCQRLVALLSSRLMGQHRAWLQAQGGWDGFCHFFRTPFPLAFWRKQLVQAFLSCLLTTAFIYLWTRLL

cells [19] = assay: cells
cells [20] = conditions: A549

T1 sequence (Q38C91 whole entry): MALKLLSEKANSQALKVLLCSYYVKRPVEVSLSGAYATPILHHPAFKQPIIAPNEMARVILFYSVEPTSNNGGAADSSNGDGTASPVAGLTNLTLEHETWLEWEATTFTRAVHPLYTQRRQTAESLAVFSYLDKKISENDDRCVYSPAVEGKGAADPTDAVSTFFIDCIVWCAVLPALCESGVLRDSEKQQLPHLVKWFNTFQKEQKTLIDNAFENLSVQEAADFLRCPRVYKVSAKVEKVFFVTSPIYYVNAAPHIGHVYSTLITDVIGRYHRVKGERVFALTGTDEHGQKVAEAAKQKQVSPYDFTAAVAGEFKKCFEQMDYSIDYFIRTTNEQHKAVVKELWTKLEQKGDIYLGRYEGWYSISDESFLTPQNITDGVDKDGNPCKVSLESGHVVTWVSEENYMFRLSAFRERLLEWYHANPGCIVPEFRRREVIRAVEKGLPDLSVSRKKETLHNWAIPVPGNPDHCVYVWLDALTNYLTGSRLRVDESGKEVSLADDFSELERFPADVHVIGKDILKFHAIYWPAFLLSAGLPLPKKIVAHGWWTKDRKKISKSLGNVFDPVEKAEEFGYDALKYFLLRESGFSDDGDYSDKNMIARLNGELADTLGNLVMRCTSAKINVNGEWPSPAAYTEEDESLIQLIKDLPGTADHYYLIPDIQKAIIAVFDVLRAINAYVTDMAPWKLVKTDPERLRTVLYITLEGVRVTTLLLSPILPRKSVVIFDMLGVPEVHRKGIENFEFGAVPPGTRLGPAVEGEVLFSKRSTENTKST

In the case of `O=C(C[C@H]1C(=O)N(Cc2ccccc2)C[C@@H]1c1ccc(Br)cc1)Nc1ccc(Br)cc1`, the CC50 (Vero) is reported as > 25 µM (active), the IC50 [1] is reported as 1.78 µM (active) and the IC50 [2] is reported as 66.5 µM (inactive). The IC50 [3] was 83.3 µM (inactive) and the IC50 [4] was 3.46 µM (active).
With `Cc1cccc(C)c1NC(=O)CNC(=O)C(C)N1CCCCC1` (configuration not stated) the AC50 (HEK293) was > 52 µM (inactive) and the AC50 [5] was > 52 µM (inactive).
In the case of `CN1/C(=C\C=N\NC(=O)c2ccc(O)cc2)C(C)(C)c2ccccc21`, the IC50 [6] is reported as 31.1 µM (inactive), the CC50 [7] is reported as 100 µM (active) and the IC50 (Large T antigen) is reported as 20.5 µM (active). For the same compound, the IC50 [8] was 60.3 µM (active), the AC50 (INS1) was 5.43 µM (active) and the IC50 (Protein Wnt-3a) was 15.4 µM (active).
For `CN(c1ccc(OCc2ccccc2)cc1)c1nc(=O)c2cccnc2s1`, the IC50 [9] was 2.33 µM (active).
With `CC(=O)NC1=C(c2ccc3c(c2)oc2ccccc23)C(=O)c2ccccc2C1=O` the AC50 [10] was 14.9 µM (active) and the AC50 [11] was 26.9 µM (active).
With `CC(C)(C)OC(=O)NCCCC[C@H](NC(=O)c1[nH]cnc1C(=O)Nc1ccc(CNC(=O)OC(C)(C)C)cc1)C(=O)OC(C)(C)C` the AC50 [12] was 7.72 µM (active) and the AC50 (Paired box protein Pax-8) was 4.41 µM (active).
For `CCN1CCN(C2=C(Nc3ccc(Cl)c(Cl)c3)C(=O)c3ccccc3C2=O)CC1`, the AC50 [13] was 21.1 µM (active), the AC50 [14] was 9.55 µM (active) and the AC50 [15] was 10.8 µM (active).
With `Cc1cccc(C(=O)Nc2nnc(SCC(=O)NCc3ccco3)s2)c1` the IC50 (Beta-lactamase [16]) was > 59.6 µM (inactive), the IC50 (Beta-lactamase [17]) was > 59.6 µM (inactive) and the IC50 (Beta-lactamase [18]) was > 59.6 µM (inactive).
With `Cn1c(=N)c(S(=O)(=O)c2ccccc2)cc2c(=O)n3ccccc3nc21` the IC50 (Bcl-2-like protein 10) was > 12.5 µM (inactive), the AC50 (cells [19]) was 1.26 µM (active) and the AC50 (cells [20]) was > 52 µM (inactive).
